Test results from paper PMC7366380, “Discovery of a Potent and Selective Covalent Inhibitor and Activity-Based Probe for the Deubiquitylating Enzyme UCHL1, with Antifibrotic Activity” (Journal of the American Chemical Society, 2020).
Where “and” joins values, the source holds several entries; their conditions need not be identical. Identical values can stand only once.

Tests used:
Assay in all cases: In-cell proteome-wide competitive ABPP, HEK293: other DUBs and proteins
[1] = target: DUBs and other proteins in HEK293 cells (Homo sapiens, UniProt O00303); details: for Log2 reporter intensity values, EIF3F: TMT replicates; for Log2 t-test Difference / Log2 reporter intensity values: EIF3F; for Log2 reporter intensity values / Log2 reporter intensity values: EIF3F: replicates A-C; for Log2 reporter intensity values: EIF3F: competition with ABP 2, DMSO substract (FC)
Chain of DUBs and other proteins in HEK293 cells (Homo sapiens, UniProt O00303) (O00303 whole entry): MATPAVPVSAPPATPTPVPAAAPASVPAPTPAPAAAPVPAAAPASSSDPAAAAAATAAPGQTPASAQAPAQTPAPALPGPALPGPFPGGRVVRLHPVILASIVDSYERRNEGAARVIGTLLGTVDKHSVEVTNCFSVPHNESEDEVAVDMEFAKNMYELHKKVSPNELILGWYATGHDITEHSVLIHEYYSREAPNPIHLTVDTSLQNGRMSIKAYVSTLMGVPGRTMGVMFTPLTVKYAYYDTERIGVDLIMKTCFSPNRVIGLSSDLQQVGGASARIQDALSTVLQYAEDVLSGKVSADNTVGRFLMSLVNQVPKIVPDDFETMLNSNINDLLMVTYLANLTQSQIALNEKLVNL

[2] = target: T1, DUBs and other proteins in HEK293 cells (Homo sapiens, UniProt Q9Y5K5); details: replicates A-C; for Log2 reporter intensity values: UCHL5: competition with ABP 2, DMSO substract (FC); for Log2 reporter intensity values: UCHL5, DMSO subtracted
T1 sequence (Q9Y5K5 1-329): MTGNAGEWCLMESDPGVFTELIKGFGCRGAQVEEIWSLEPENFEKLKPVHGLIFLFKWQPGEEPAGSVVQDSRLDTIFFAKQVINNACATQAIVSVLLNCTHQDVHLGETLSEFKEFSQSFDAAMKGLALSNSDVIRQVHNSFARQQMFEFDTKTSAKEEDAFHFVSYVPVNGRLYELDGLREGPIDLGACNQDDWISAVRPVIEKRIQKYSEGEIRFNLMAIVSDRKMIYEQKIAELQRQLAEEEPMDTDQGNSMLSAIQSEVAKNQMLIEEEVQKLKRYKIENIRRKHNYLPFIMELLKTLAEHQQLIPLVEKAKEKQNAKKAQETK

[3] = target: T2, DUBs and other proteins in HEK293 cells (Homo sapiens, UniProt Q96RU2); details: replicates A-C; for Log2 reporter intensity values: USP28: competition with ABP 2, DMSO substract (FC); for Log2 reporter intensity values: USP28, DMSO subtracted
T2 sequence (Q96RU2 1-1077): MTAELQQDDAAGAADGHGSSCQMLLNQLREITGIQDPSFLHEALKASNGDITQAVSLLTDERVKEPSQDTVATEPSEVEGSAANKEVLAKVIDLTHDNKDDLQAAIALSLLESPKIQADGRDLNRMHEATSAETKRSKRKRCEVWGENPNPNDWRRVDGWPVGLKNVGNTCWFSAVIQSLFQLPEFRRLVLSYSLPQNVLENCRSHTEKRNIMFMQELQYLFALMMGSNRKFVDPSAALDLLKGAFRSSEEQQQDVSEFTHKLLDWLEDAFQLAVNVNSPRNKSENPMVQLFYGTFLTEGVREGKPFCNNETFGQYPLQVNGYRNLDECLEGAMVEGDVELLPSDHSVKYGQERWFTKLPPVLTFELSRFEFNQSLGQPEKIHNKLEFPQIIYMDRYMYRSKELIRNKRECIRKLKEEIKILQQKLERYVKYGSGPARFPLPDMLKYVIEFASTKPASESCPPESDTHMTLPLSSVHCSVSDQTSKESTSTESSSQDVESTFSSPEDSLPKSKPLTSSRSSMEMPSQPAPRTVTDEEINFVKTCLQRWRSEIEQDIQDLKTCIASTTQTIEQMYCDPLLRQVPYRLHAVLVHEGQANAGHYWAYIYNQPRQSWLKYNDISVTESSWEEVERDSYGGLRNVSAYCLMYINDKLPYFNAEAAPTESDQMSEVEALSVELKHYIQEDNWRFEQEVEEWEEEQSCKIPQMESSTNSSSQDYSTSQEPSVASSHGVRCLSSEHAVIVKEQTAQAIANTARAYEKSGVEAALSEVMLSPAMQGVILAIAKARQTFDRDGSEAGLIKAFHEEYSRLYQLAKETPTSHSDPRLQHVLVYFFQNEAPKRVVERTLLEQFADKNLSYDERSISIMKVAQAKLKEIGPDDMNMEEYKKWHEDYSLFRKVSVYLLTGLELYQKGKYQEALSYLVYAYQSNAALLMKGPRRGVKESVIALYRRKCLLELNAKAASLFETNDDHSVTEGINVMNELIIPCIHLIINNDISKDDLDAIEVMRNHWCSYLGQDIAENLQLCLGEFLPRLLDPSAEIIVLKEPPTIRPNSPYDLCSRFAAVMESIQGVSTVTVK

[4] = target: T3, DUBs and other proteins in HEK293 cells (Homo sapiens, UniProt P45974); details: replicates A-C; for Log2 reporter intensity values: USP5: competition with ABP 2, DMSO substract (FC); for Log2 reporter intensity values: USP5, DMSO subtracted
T3 sequence (P45974 1-858): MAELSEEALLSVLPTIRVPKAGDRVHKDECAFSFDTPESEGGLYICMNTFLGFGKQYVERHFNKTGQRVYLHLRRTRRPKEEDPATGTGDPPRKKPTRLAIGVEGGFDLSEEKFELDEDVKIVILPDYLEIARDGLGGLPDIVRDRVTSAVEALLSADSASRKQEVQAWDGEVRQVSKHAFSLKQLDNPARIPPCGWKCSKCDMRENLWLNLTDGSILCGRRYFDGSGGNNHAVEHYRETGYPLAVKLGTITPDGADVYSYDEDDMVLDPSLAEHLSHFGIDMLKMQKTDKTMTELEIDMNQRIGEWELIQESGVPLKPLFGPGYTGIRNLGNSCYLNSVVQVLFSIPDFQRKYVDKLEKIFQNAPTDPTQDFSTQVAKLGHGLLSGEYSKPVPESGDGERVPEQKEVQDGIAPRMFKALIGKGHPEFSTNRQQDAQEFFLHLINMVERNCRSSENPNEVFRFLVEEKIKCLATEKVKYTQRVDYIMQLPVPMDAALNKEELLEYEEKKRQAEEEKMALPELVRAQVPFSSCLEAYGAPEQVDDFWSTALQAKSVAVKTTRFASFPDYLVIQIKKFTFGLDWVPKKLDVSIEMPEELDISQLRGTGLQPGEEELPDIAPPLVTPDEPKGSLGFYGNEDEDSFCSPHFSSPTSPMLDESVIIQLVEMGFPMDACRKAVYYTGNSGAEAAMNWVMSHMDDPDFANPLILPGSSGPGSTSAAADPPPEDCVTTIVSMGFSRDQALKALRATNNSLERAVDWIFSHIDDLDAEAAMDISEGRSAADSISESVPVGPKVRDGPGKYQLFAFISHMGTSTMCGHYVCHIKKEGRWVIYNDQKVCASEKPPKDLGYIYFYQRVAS

## CC(=O)O/N=C1\C(=O)N(Cc2cc(Cl)ccc2Cl)c2ccc(Cl)cc21 [LDN]
[1]; 5 μM LDN-57444 (60 min) + 20 nM ABP 2 (10 min), All values
  Log2 reporter intensity values, EIF3F: 0.1312 and 0.08738 and -0.0291
[1]; 5 μM LDN-57444 (60 min) + 20 nM ABP 2 (10 min), DMSO subtracted
  Log2 reporter intensity values, EIF3F: 0.1407 and 0.09693 and -0.01955
[1]; 25 μM LDN-57444 (60 min) + 20 nM ABP 2 (10 min), All values
  Log2 reporter intensity values, EIF3F: 0.03265 and -0.09761 and -0.112
[1]; 25 μM LDN-57444 (60 min) + 20 nM ABP 2 (10 min), DMSO subtracted
  Log2 reporter intensity values, EIF3F: 0.0422 and -0.08806 and -0.1024
[1]; LDN - 5 μM
  Log2 t-test Difference: -0.01801
[1]; LDN at 5 μM, DMSO subtracted
  Log2 reporter intensity values: 0.1407 and 0.09693 and -0.01955
[1]; LDN at 25 μM, DMSO subtracted
  Log2 reporter intensity values: 0.0422 and -0.08806 and -0.1024
[1]; LDN_5 μM, DMSO subtracted
  Log2 reporter intensity values: 0.102 and 0.06908 and -0.01388
[1]; LDN_25 μM, DMSO subtracted
  Log2 reporter intensity values: 0.02927 and -0.05963 and -0.06897
[1]; LDN at 5 μM
  Log2 reporter intensity values: EIF3F: 1.102 and 1.069 and 0.9865
[1]; LDN at 25 μM
  Log2 reporter intensity values: EIF3F: 1.03 and 0.9408 and 0.9315
[2]; LDN at 5 μM
  Log2 reporter intensity values: UCHL5: 1.097 and 1.066 and 1.089
  Log2 reporter intensity values: 0.134 and 0.09247 and 0.1227
[2]; LDN at 25 μM
  Log2 reporter intensity values: UCHL5: 0.9397 and 0.9601 and 0.908
  Log2 reporter intensity values: -0.08966 and -0.05875 and -0.1393
[2]; LDN_5 μM
  Log2 reporter intensity values: 0.09668 and 0.06552 and 0.08811
[2]; LDN_25 μM
  Log2 reporter intensity values: -0.06093 and -0.04058 and -0.09272
[3]; LDN at 5 μM
  Log2 reporter intensity values: USP28: 1.021 and 0.7867 and 1.08
  Log2 reporter intensity values: 0.03026 and -0.3461 and 0.1114
[3]; LDN at 25 μM
  Log2 reporter intensity values: USP28: 0.7474 and 0.7545 and 1.193
  Log2 reporter intensity values: -0.42 and -0.4063 and 0.2545
[3]; LDN_5 μM
  Log2 reporter intensity values: -0.01852 and -0.253 and 0.04055
[3]; LDN_25 μM
  Log2 reporter intensity values: -0.2923 and -0.2852 and 0.1532
[4]; LDN at 5 μM
  Log2 reporter intensity values: USP5: 1.037 and 0.9788 and 0.9532
  Log2 reporter intensity values: 0.05306 and -0.03094 and -0.06922
[4]; LDN at 25 μM
  Log2 reporter intensity values: USP5: 1.021 and 0.9648 and 0.9864
  Log2 reporter intensity values: 0.02936 and -0.0517 and -0.01971
[4]; LDN_5 μM
  Log2 reporter intensity values: 0.03714 and -0.02154 and -0.04717
[4]; LDN_25 μM
  Log2 reporter intensity values: 0.02024 and -0.03553 and -0.01389

## N#CN1CCC[C@H]1C(=O)N1CCc2c(-c3c[nH]c4ncccc34)cccc21 [Compound 1]
[1]; 1 μM 1 (60 min) + 20 nM ABP 2 (10 min), All values
  Log2 reporter intensity values, EIF3F: -0.05755 and -0.0632 and -0.06224
[1]; 1 μM 1 (60 min) + 20 nM ABP 2 (10 min), DMSO subtracted
  Log2 reporter intensity values, EIF3F: -0.048 and -0.05365 and -0.05269
[1]; 4 μM 1 (60 min) + 20 nM ABP 2 (10 min), All values
  Log2 reporter intensity values, EIF3F: 0.06402 and -0.06596 and 0.05418
[1]; 4 μM 1 (60 min) + 20 nM ABP 2 (10 min), DMSO subtracted
  Log2 reporter intensity values, EIF3F: 0.07357 and -0.05641 and 0.06373
[1]; 1 at 1 μM
  Log2 reporter intensity values: EIF3F: 0.9673 and 0.9635 and 0.9641
[1]; 1 at 4 μM
  Log2 reporter intensity values: EIF3F: 1.052 and 0.9617 and 1.045
[1]; 1 - 1 μM
  Log2 t-test Difference: -0.1421
[1]; 1 - 4 μM
  Log2 t-test Difference: -0.06374
[1]; 1_1 μM, DMSO subtracted
  Log2 reporter intensity values: -0.03315 and -0.03692 and -0.03628
[1]; 1_4 μM, DMSO subtracted
  Log2 reporter intensity values: 0.0519 and -0.03877 and 0.04475
[1]; 1 at 1 μM, DMSO subtracted
  Log2 reporter intensity values: -0.048 and -0.05365 and -0.05269
[1]; 1 at 4 μM, DMSO subtracted
  Log2 reporter intensity values: 0.07357 and -0.05641 and 0.06373
[2]; 1 at 1 μM
  Log2 reporter intensity values: UCHL5: 1.121 and 1.059 and 1.084
  Log2 reporter intensity values: 0.1653 and 0.08265 and 0.1168
[2]; 1 at 4 μM
  Log2 reporter intensity values: UCHL5: 1.068 (2×) and 1.07
  Log2 reporter intensity values: 0.09472 and 0.09521 and 0.09766
[2]; 1_1 μM
  Log2 reporter intensity values: 0.1208 and 0.05828 and 0.08364
[2]; 1_4 μM
  Log2 reporter intensity values: 0.06718 and 0.06755 and 0.06936
[3]; 1 at 1 μM
  Log2 reporter intensity values: USP28: 0.9959 and 0.8739 and 1.601
  Log2 reporter intensity values: -0.005982 and -0.1944 and 0.6787
[3]; 1 at 4 μM
  Log2 reporter intensity values: USP28: 1.351 and 1.583 and 1.105
  Log2 reporter intensity values: 0.4345 and 0.6627 and 0.1441
[3]; 1_1 μM
  Log2 reporter intensity values: -0.04385 and -0.1658 and 0.561
[3]; 1_4 μM
  Log2 reporter intensity values: 0.3117 and 0.5434 and 0.06533
[4]; 1 at 1 μM
  Log2 reporter intensity values: USP5: 0.9731 and 0.9825 and 0.9558
  Log2 reporter intensity values: -0.03934 and -0.0255 and -0.06525
[4]; 1 at 4 μM
  Log2 reporter intensity values: USP5: 0.9723 and 0.9393 and 0.9714
  Log2 reporter intensity values: -0.04051 and -0.09041 and -0.04193
[4]; 1_1 μM
  Log2 reporter intensity values: -0.02722 and -0.01785 and -0.04454
[4]; 1_4 μM
  Log2 reporter intensity values: -0.02801 and -0.06107 and -0.02897
